Experimental data: patent US20090318468A1, “PYRAZOLE COMPOUNDS 436” (AstraZeneca AB, priority 2008, published 2009)

Assays:
Type in all cases: in vitro ADME
[1] = target: T1, human cytochrome P450 (CYP) 1A2 (Homo sapiens, UniProt P05177); assay: Cytochrome P450 Inhibition Assay, CYP 1A2; details: test compound 0.1-10 μM, substrate CEC
T1 construct: made in house; host or cells: yeast (microsomal fraction)
T1 sequence (P05177 1-516): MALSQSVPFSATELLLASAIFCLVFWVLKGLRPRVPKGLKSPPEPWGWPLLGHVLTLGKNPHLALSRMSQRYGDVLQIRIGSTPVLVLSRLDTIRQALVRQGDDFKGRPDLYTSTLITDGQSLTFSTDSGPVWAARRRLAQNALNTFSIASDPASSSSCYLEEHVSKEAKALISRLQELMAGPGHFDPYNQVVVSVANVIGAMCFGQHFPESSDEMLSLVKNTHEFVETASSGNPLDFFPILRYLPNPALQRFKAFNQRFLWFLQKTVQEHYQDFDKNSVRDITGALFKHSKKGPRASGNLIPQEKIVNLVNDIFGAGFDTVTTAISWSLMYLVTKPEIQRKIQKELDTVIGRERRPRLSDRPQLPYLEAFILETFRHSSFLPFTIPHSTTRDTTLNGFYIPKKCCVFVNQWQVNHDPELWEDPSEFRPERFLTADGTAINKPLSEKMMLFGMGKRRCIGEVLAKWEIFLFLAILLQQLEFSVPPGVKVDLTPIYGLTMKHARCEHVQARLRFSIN
Protocol: (§1) Cytochrome P450 Inhibition Assay
The inhibitory potential (IC50) of test compounds against 5 human cytochrome P450 (CYP) isoforms (1A2, 2C9, 2C19, 3A4 and 2D6) was assessed using an automated fluorescent end point in vitro assay modified from Crespi (Crespi and Stresser, J Pharmacol Toxicol Methods 2000, 44: 325-331). Microsomal subcellular fractions prepared from Yeast cell lines expressing each human CYP isoform were used as an enzyme source in this assay. The activity of the 5 major human CYPs was determined from the biotransformation of a number of coumarin substrates to fluorescent metabolites, in the presence of NADPH. […] Comparison of the fluorescence observed in the presence of varying concentrations of test compound with that seen in its absence allowed an IC50 value to be calculated. […] The appropriate solvent controls and substrate blanks were included in each experiment to assess control activity and identify any inherent fluorescence due to the test compounds. […] The plates were read on a fluorimeter (Spectrafluor Plus) at the appropriate excitation and emission wavelengths (listed in Table 2) and the percent activity, corrected for control, was plotted against the test compound concentration.

[2] = target: T2, human cytochrome P450 (CYP) 2C9 (Homo sapiens, UniProt P11712); assay: Cytochrome P450 Inhibition Assay, CYP 2C9; details: test compound 0.1-10 μM, substrate MFC
T2 construct: made in house; host or cells: yeast (microsomal fraction)
Protocol: as §1
Microsomal subcellular fractions prepared from Yeast cell lines expressing each human CYP isoform were used as an enzyme source in this assay. The activity of the 5 major human CYPs was determined from the biotransformation of a number of coumarin substrates to fluorescent metabolites, in the presence of NADPH. […] Stock solutions of each CYP, with its respective substrate, were prepared in phosphate buffer pH 7.4 (see Table 1) and 178 μl was added to the well of a black solid, flat bottom, 300 μl 96 well microtitre plate (Corning Costar). […] After pre-incubating at 37° C. for 5 min the reactions were started with addition of NADPH (20 μl, concentration shown in Table 1). The final solvent content in each incubation was <=2% (1% from the test compound and a maximum of 1% from the substrate). The appropriate solvent controls and substrate blanks were included in each experiment to assess control activity and identify any inherent fluorescence due to the test compounds. In addition, known inhibitors of each CYP were included as positive controls (see Table 3 for inhibitor concentrations and expected IC50 ranges). […] The plates were read on a fluorimeter (Spectrafluor Plus) at the appropriate excitation and emission wavelengths (listed in Table 2) and the percent activity, corrected for control, was plotted against the test compound concentration.

[3] = target: T3, human cytochrome P450 (CYP) 2D6 (Homo sapiens, UniProt P10635); assay: Cytochrome P450 Inhibition Assay, CYP 2D6; details: test compound 0.1-10 μM, substrate MAMC
T3 construct: made in house; host or cells: yeast (microsomal fraction)
Protocol: as §1
(§2) The inhibitory potential (IC50) of test compounds against 5 human cytochrome P450 (CYP) isoforms (1A2, 2C9, 2C19, 3A4 and 2D6) was assessed using an automated fluorescent end point in vitro assay modified from Crespi (Crespi and Stresser, J Pharmacol Toxicol Methods 2000, 44: 325-331). Microsomal subcellular fractions prepared from Yeast cell lines expressing each human CYP isoform were used as an enzyme source in this assay. The activity of the 5 major human CYPs was determined from the biotransformation of a number of coumarin substrates to fluorescent metabolites, in the presence of NADPH. […] Stock solutions of each CYP, with its respective substrate, were prepared in phosphate buffer pH 7.4 (see Table 1) and 178 μl was added to the well of a black solid, flat bottom, 300 μl 96 well microtitre plate (Corning Costar). […] The appropriate solvent controls and substrate blanks were included in each experiment to assess control activity and identify any inherent fluorescence due to the test compounds. […] The plates were read on a fluorimeter (Spectrafluor Plus) at the appropriate excitation and emission wavelengths (listed in Table 2) and the percent activity, corrected for control, was plotted against the test compound concentration.

[4] = target: T4, human cytochrome P450 (CYP) 3A4 (Homo sapiens, UniProt P08684); assay: Cytochrome P450 Inhibition Assay, CYP 3A4; details: test compound 0.1-10 μM, substrate BFC
T4 construct: made in house; host or cells: yeast (microsomal fraction)
Protocol: as §1, §2

T4 sequence (P08684 whole entry): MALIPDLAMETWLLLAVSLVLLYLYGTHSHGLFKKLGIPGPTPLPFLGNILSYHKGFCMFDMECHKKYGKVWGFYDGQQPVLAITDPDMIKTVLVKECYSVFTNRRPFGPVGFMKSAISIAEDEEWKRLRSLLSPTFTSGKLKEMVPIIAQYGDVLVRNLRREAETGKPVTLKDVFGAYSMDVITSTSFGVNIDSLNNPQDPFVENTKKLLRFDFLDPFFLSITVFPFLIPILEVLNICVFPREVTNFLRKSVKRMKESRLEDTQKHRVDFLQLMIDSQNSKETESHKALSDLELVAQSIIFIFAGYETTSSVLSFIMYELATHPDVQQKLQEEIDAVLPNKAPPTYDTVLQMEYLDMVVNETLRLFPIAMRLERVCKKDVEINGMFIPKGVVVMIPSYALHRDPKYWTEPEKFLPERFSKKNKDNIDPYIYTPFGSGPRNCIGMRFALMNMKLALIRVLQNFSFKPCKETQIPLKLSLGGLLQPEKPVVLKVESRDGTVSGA
T3 sequence (P10635 whole entry): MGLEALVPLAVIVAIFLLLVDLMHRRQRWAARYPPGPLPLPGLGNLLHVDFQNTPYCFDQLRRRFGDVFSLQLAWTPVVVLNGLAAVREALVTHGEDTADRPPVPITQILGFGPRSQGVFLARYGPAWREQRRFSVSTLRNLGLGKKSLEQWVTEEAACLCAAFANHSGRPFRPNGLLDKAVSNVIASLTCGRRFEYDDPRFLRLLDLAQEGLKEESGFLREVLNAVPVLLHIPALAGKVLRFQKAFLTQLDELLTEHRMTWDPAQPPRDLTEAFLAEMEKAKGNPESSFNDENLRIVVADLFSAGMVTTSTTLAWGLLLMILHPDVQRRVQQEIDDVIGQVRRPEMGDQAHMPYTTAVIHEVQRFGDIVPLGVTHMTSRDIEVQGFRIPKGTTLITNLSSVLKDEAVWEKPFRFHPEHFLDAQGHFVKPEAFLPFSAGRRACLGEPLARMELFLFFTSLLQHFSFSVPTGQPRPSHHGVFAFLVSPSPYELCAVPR
T2 sequence (P11712 whole entry): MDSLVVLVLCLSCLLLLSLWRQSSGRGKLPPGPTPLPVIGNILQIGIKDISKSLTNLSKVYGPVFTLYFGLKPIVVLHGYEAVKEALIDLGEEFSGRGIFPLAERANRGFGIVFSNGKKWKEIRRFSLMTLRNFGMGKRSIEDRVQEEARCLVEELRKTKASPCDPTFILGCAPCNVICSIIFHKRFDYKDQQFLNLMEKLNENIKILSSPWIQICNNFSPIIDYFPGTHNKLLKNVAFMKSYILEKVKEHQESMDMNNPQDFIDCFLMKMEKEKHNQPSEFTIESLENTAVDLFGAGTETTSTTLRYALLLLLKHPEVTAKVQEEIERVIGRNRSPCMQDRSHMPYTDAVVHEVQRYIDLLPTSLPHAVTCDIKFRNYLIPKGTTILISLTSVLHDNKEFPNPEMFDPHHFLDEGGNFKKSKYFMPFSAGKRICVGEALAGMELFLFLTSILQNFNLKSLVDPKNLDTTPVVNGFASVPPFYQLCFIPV

Row | IC50 [1] | IC50 [2] | IC50 [3] | IC50 [4] | SMILES
1 | > 10 µM | 3.76 µM | > 10 µM | 2.94 µM | COc1cc(CCc2cc(NC(=O)c3ccc(N4CCN(C)[C@@H](C)C4)cc3)[nH]n2)cc(OC)c1 [Example 1a, (S)—N-(3-(3,5-Dimethoxyphenethyl)-1H-pyrazol-5-yl)-4-(3,4-dimethylpiperazin-1-yl)benzamide]
2 | > 10 µM | 9.12 µM | > 10 µM | > 10 µM | COc1cc(CCc2cc(NC(=O)c3ccc(N4CCN(C)[C@H](C)C4)cc3)[nH]n2)cc(OC)c1 [Example 1b, (R)—N-(3-(3,5-Dimethoxyphenethyl)-1H-pyrazol-5-yl)-4-(3,4-dimethylpiperazin-1-yl)benzamide]
